Measured values as given in patent US20130065962A1, “Compounds For Use In The Treatment Of Diseases” (INOXIA LIFESCIENCES GMBH, priority 2010, published 2013).
Read-outs that look alike come from different tables or passages of the source.

What was measured:
Assay type in all cases: biochemical
[1] = biological target: T1, eosinophil peroxidase (EPO) (Homo sapiens, UniProt P11678); test: EPO bromination activity, monochlorodimedon (MCD) assay
T1 construct: 20 nM of EPO
T1 sequence (P11678 140-715): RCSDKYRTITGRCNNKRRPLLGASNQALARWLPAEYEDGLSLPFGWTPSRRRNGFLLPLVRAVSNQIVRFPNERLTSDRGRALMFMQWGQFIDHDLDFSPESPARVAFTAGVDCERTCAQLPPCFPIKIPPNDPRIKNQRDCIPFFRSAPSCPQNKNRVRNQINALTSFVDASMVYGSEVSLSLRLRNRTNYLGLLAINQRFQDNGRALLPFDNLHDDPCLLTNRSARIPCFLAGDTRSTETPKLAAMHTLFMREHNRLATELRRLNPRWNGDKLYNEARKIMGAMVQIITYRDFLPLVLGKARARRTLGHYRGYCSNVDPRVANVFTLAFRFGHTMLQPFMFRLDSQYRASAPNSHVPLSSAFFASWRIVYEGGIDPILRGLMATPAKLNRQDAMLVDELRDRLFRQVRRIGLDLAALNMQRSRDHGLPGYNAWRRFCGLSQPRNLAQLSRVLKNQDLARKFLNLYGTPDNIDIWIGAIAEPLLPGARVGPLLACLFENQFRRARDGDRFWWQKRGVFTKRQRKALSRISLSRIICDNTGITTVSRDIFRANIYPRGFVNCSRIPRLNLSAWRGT
Protocol: In order to test to what extent the substances according to the invention are able to inhibit EPO, the substances were tested for their inhibitory potential. […] In that, IC50 is that inhibitor concentration, which is required to inhibit an enzyme, here EPO, by 50%. This concentration is determined UV/Vis spectrophotometrically at 290 nm in the steady-state with a monochlorodimedon (MCD) assay.
Eosinophil peroxidase forms a multiplicity of different enzyme intermediates and is able to catalyze a high number of redox reactions. The physiological role of EPO is the oxidation of bromide or thiocyanate, respectively, to hypobromous acid or hypothiocyanate, respectively (also called halogenation cycle). And it is exactly this reaction that has to be inhibited. In the presence of phenolic substances, however, the enzyme can also undergo the so-called peroxidase cycle.
In order to determine the properties of the substances according to the invention to be inhibited, a method was used, in which the bromination activity is examined.
The extent of inhibition of the physiological bromide oxidation was photometrically determined using monochlorodimedon. The halogenation rate (initial inclination of the curve at 290 nm) with inhibitor was related to a blind value (without inhibitor), and therefrom the inactivation rate (in %) was determined. This was entered into a diagram (y-axis) opposite the inhibitor concentration (x-axis), and from the hyperbolic fit of the curve, the IC50 value for each inhibitor was determined.
100 mM of phosphate buffer, pH 7.0
100 μM of monochlorodimedon

myeloperoxidase (MPO) [2] = biological target: T2, myeloperoxidase (MPO) (Homo sapiens, UniProt P05164); test: MPO + Br halogenation inhibition (MCD assay); conditions: bromide as substrate
T2 sequence (P05164 49-745): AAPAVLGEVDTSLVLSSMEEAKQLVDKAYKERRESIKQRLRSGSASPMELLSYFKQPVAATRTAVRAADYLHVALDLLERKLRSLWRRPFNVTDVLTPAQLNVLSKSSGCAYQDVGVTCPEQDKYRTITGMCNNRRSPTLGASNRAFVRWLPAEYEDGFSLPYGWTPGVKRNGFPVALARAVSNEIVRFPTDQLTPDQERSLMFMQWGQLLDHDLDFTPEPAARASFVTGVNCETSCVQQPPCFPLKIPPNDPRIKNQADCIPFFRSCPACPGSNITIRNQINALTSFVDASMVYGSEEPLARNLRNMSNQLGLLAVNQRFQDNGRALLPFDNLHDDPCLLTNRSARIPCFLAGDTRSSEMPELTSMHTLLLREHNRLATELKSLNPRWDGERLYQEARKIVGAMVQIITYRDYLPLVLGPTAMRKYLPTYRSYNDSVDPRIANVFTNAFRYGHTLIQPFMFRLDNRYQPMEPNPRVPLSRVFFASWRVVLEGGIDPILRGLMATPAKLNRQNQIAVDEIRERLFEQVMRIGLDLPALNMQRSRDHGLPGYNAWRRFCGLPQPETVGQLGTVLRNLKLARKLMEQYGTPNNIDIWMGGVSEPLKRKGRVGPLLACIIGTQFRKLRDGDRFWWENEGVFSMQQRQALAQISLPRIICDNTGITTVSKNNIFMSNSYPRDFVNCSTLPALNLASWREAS

lactoperoxidase (LPO) = lactoperoxidase (LPO) (UniProt P80025); test: LPO + Br halogenation inhibition (MCD assay); conditions: bromide as substrate
myeloperoxidase (MPO) [3] = biological target: T2, myeloperoxidase (MPO); test: MPO + Cl halogenation inhibition (MCD assay); conditions: chloride as substrate
[4] = Example 3, same protocol as Example 1, read-out: IC50 EPO/Br
[5] = bromide oxidation, MCD assay at 290 nm, 100 mM bromide, 20 nM EPO, pH 7.0, read-out: IC50 EPO + Br
[6] = Example 2, tests performed as in Example 1, read-out: IC50 value (EPO)

| Compound | IC50 [1, 4] [nM] | IC50 (myeloperoxidase (MPO) [2]) [nM] | IC50 [1, 5] [nM] | fold potential relative to compound (6) (EPO IC50) ([1]; compound (3) compared with non-halogenated compound (6)) [fold] | IC50 (lactoperoxidase (LPO)) [nM] | IC50 (myeloperoxidase (MPO) [3]) [nM] | IC50 [1, 6] [nM] |
| --- | --- | --- | --- | --- | --- | --- | --- |
| NNC(=O)CNc1ccccc1F [(3), 2-fluoro-phenylaminoethane-hydrazide] |  | 1900 | 9 | > 200 | 100 | 8800 |  |
| NNC(=O)CNc1ccc(F)cc1 [(1), 4-fluoro-phenylaminoethane-hydrazide] |  | 4120 | 240 |  | 540 | 5430 |  |
| NNC(=O)CNc1ccc(Cl)cc1 [(2), 4-chloro-phenylaminoethane-hydrazide] |  | 1200 | 24 |  | 30 | 1970 |  |
| CC(C)NNC(=O)c1ccncc1 [iproniazide, N′-isopropylisonicotinohydrazide, reference compound] |  |  |  |  |  |  | > 500000 |
| Cc1ccc(NCC(=O)NN)cc1 [(8), 4-methyl-phenylaminoethane-hydrazide] |  | 29400 | 2270 |  | 2770 | 32200 |  |
| NNC(=O)CNc1cccc(Br)c1 [(5), 3-bromo-phenylaminoethane-hydrazide] |  | 1600 | 17 |  | 40 | 3700 |  |
| NNC(=O)CNc1ccc(F)c(Cl)c1 [(4), 4-fluoro-3-chloro-phenylaminoethane-hydrazide] |  | 547 | 19 |  | 140 | 2400 |  |
| NNC(=O)CNc1ccccc1 [Compound (6), phenylaminoethane-hydrazide] |  | 84600 | 2290 |  | 4970 | 46000 |  |
| NNC(=O)CNc1ccc(F)cc1F [(7), 2,4-di-fluoro-phenylaminoethane-hydrazide] |  | 2040 | 34 |  | 322 | 6550 |  |
| NNC(=O)c1ccncc1 [isoniazide, pyridine-4-carbohydrazide, reference compound] |  |  |  |  |  |  | 6040 |

The next lines start with the values.

| IC50 [1, 4] [nM] | IC50 (myeloperoxidase (MPO) [2]) [nM] | IC50 [1, 5] [nM] | fold potential relative to compound (6) (EPO IC50) ([1]; compound (3) compared with non-halogenated compound (6)) [fold] | IC50 (lactoperoxidase (LPO)) [nM] | IC50 (myeloperoxidase (MPO) [3]) [nM] | IC50 [1, 6] [nM] | Compound |
| --- | --- | --- | --- | --- | --- | --- | --- |
| 1200 |  |  |  |  |  |  | NNC(=O)CSc1ccc(Cl)cc1 [PD06, 2-[(4-chlorophenyl)sulfanyl]acetohydrazide] |
| 200 |  |  |  |  |  |  | O=C(O)CNc1ccc(Cl)cc1 [PD02, 2-[(4-chlorophenyl)amino]acetic acid] |
| 3100 |  |  |  |  |  |  | NNC(=O)CCc1ccccc1O [PD20, 3-(2-hydroxyphenyl)propanohydrazide] |
| 2700 |  |  |  |  |  |  | NNC(=O)COc1ccc(F)cc1 [PD09, 2-(4-fluorophenoxy)acetohydrazide] |
| 1000 |  |  |  |  |  |  | O=C(O)CNc1ccccc1F [PD01, N-(2-fluorophenyl)glycin] |
| 3900 |  |  |  |  |  |  | NNC(=O)COc1ccccc1Br [PD17, 2-(2-bromophenoxy)acetohydrazide] |
